This assay relates to MCH receptors. Put plainly: MCH receptor activity class (method not given). Particulars: class by percent of control at 10^-7 M or IC50.

`CN(C)c1cc(N[C@H]2CC[C@@H](CNC(=O)c3c(F)ccc(F)c3F)CC2)nc2ccccc12` [compound 227]: the class is 3 (Class 3 The value of percent of control at 10^−7 M was more than 60% or the value of IC50 was more than 200 nM.).
On to `CN(C)c1cc(N[C@H]2CC[C@@H](CNC(=O)c3cccc(F)c3F)CC2)nc2ccccc12` [compound 228], for which the class was 3 (Class 3 The value of percent of control at 10^−7 M was more than 60% or the value of IC50 was more than 200 nM.).
The value for `CN(C)c1cc(N[C@H]2CC[C@@H](CNC(=O)c3c(F)cccc3F)CC2)nc2ccccc12` [compound 229] was 3 (Class 3 The value of percent of control at 10^−7 M was more than 60% or the value of IC50 was more than 200 nM.).
The value for `CN(C)c1cc(N[C@H]2CC[C@@H](CNC(=O)c3c(F)cccc3C(F)(F)F)CC2)nc2ccccc12` [compound 230] was 3 (Class 3 The value of percent of control at 10^−7 M was more than 60% or the value of IC50 was more than 200 nM.).
The value for `Cc1cc(C)c(C(=O)NC[C@H]2CC[C@@H](Nc3cc(N(C)C)c4ccccc4n3)CC2)c(C)c1` [compound 231, N-[(cis-4-{[4-(dimethylamino)quinolin-2-yl]amino}cyclohexyl)methyl]-2,4,6-trimethylbenzamide] was 1 (Class 1: The value of percent of control at 10^−7 M was less than 40% or the value of IC50 was less than 50 nM.); that for `CN(C)c1cc(N[C@H]2CC[C@@H](CNC(=O)c3c(F)cccc3Cl)CC2)nc2ccccc12` [compound 232] was 3 (Class 3 The value of percent of control at 10^−7 M was more than 60% or the value of IC50 was more than 200 nM.).
Regarding `CN(C)c1cc(N[C@H]2CC[C@@H](CNC(=O)c3c(Cl)cc(Cl)cc3Cl)CC2)nc2ccccc12` [compound 233], the class was 1 (Class 1: The value of percent of control at 10^−7 M was less than 40% or the value of IC50 was less than 50 nM.).
The figure for `CN(C)c1cc(N[C@H]2CC[C@@H](CNC(=O)/C=C/c3ccccc3Cl)CC2)nc2ccccc12` [compound 234, (2E)-3-(2-chlorophenyl)-N-[(cis-4-{[4-(dimethylamino)quinolin-2-yl]amino}cyclohexyl)methyl]acrylamide] is 2 (Class 2: The value of percent of control at 10^−7 M was from 40% to 60% or the value of IC′50 was from 50 nM to 200 nM.).
In the case of `Cc1ccc(Cl)c(C(=O)NC[C@H]2CC[C@@H](Nc3cc(N(C)C)c4ccccc4n3)CC2)c1F` [compound 235], the class is 3 (Class 3 The value of percent of control at 10^−7 M was more than 60% or the value of IC50 was more than 200 nM.).
The figure for `CN(C)c1cc(N[C@H]2CC[C@@H](CNC(=O)c3c(F)ccc(F)c3Cl)CC2)nc2ccccc12` [compound 236] is 3 (Class 3 The value of percent of control at 10^−7 M was more than 60% or the value of IC50 was more than 200 nM.).
As to `Cc1cccc(C(=O)NC[C@H]2CC[C@@H](Nc3cc(N(C)C)c4ccccc4n3)CC2)c1C` [compound 237], the class is 3 (Class 3 The value of percent of control at 10^−7 M was more than 60% or the value of IC50 was more than 200 nM.).
Take `COc1cccc(C(=O)N[C@H]2CC[C@@H](Nc3nccc(N(C)C)n3)CC2)c1` [compound 238, N-(cis-4-{[4-(dimethylamino)pyrimidin-2-yl]amino}cyclohexyl)-3-methoxybenzamide]: the class is 2 (Class 2: The value of percent of control at 10^−7 M was from 40% to 60% or the value of IC′50 was from 50 nM to 200 nM.).
As to `CN(C)c1ccnc(N[C@H]2CC[C@@H](NC(=O)c3cccc(Br)c3)CC2)n1` [compound 239], the class is 1 (Class 1: The value of percent of control at 10^−7 M was less than 40% or the value of IC50 was less than 50 nM.).
The figure for `CN(C)c1ccnc(N[C@H]2CC[C@@H](NC(=O)c3ccc(Br)cc3)CC2)n1` [compound 240] is 3 (Class 3 The value of percent of control at 10^−7 M was more than 60% or the value of IC50 was more than 200 nM.); for `CN(C)c1ccnc(N[C@H]2CC[C@@H](NC(=O)c3ccc4nonc4c3)CC2)n1` [compound 241, N-(cis-4-{[4-(dimethylamino)pyrimidin-2-yl]amino}cyclohexyl)-2,1,3-benzoxadiazole-5-carboxamide] it is 1 (Class 1: The value of percent of control at 10^−7 M was less than 40% or the value of IC50 was less than 50 nM.).
In the case of `CN(C)c1ccnc(N[C@H]2CC[C@@H](NC(=O)c3cccc(Cl)c3)CC2)n1` [compound 242], the class is given as 1 (Class 1: The value of percent of control at 10^−7 M was less than 40% or the value of IC50 was less than 50 nM.).
On to `CN(C)c1ccnc(N[C@H]2CC[C@@H](NC(=O)c3ccc(Cl)cc3)CC2)n1` [compound 243], for which the class is 2 (Class 2: The value of percent of control at 10^−7 M was from 40% to 60% or the value of IC′50 was from 50 nM to 200 nM.).
In the case of `CN(C)c1ccnc(N[C@H]2CC[C@@H](NC(=O)/C=C/c3ccccc3)CC2)n1` [compound 244], the class was 3 (Class 3 The value of percent of control at 10^−7 M was more than 60% or the value of IC50 was more than 200 nM.).
The figure for `CN(C)c1ccnc(N[C@H]2CC[C@@H](NC(=O)c3ccc(Cl)c([N+](=O)[O-])c3)CC2)n1` [compound 245, 4-chloro-N-(cis-4-{[4-(dimethylamino)pyrimidin-2-yl]amino}cyclohexyl)-3-nitrobenzamide] is 1 (Class 1: The value of percent of control at 10^−7 M was less than 40% or the value of IC50 was less than 50 nM.).
On to `CN(C)c1ccnc(N[C@H]2CC[C@@H](NC(=O)Cc3ccc(Cl)cc3)CC2)n1` [compound 246], for which the class is 3 (Class 3 The value of percent of control at 10^−7 M was more than 60% or the value of IC50 was more than 200 nM.).
For `CN(C)c1ccnc(N[C@H]2CC[C@@H](NC(=O)c3cccc(C#N)c3)CC2)n1` [compound 247], the class is listed as 3 (Class 3 The value of percent of control at 10^−7 M was more than 60% or the value of IC50 was more than 200 nM.).
For `CN(C)c1ccnc(N[C@H]2CC[C@@H](NC(=O)c3cc(Cl)cc(Cl)c3)CC2)n1` [compound 248], the class is 1 (Class 1: The value of percent of control at 10^−7 M was less than 40% or the value of IC50 was less than 50 nM.).
The value for `CN(C)c1ccnc(N[C@H]2CC[C@@H](NC(=O)c3ccc(Cl)c(Cl)c3)CC2)n1` [compound 249] was 1 (Class 1: The value of percent of control at 10^−7 M was less than 40% or the value of IC50 was less than 50 nM.).
The figure for `CN(C)c1ccnc(N[C@H]2CC[C@@H](NC(=O)C(c3ccccc3)c3ccccc3)CC2)n1` [compound 250, N-(cis-4-{[4-(dimethylamino)pyrimidin-2-yl]amino}cyclohexyl)-2,2-diphenylacetamide] is 2 (Class 2: The value of percent of control at 10^−7 M was from 40% to 60% or the value of IC′50 was from 50 nM to 200 nM.); for `CN(C)c1ccnc(N[C@H]2CC[C@@H](NC(=O)c3ccc(F)c(F)c3)CC2)n1` [compound 251, N-(cis-4-{[4-(dimethylamino)pyrimidin-2-yl]amino}cyclohexyl)-3,4-difluorobenzamide] it is 1 (Class 1: The value of percent of control at 10^−7 M was less than 40% or the value of IC50 was less than 50 nM.).
For `CN(C)c1ccnc(N[C@H]2CC[C@@H](NC(=O)c3cc(F)cc(F)c3)CC2)n1` [compound 252, N-(cis-4-{[4-(dimethylamino)pyrimidin-2-yl]amino}cyclohexyl)-3,5-difluorobenzamide], the class is 2 (Class 2: The value of percent of control at 10^−7 M was from 40% to 60% or the value of IC′50 was from 50 nM to 200 nM.).
For `COc1ccc(OC)c(CC(=O)N[C@H]2CC[C@@H](Nc3nccc(N(C)C)n3)CC2)c1` [compound 253], the class is 3 (Class 3 The value of percent of control at 10^−7 M was more than 60% or the value of IC50 was more than 200 nM.).
Take `CCSc1ncccc1C(=O)N[C@H]1CC[C@@H](Nc2nccc(N(C)C)n2)CC1` [compound 254]: the class is listed as 3 (Class 3 The value of percent of control at 10^−7 M was more than 60% or the value of IC50 was more than 200 nM.).
For the compound `CN(C)c1ccnc(N[C@H]2CC[C@@H](NC(=O)c3ccc(F)cc3)CC2)n1` [compound 255, N-(cis-4-{[4-(dimethylamino)pyrimidin-2-yl]amino}cyclohexyl)-4-fluorobenzamide], the class was 3 (Class 3 The value of percent of control at 10^−7 M was more than 60% or the value of IC50 was more than 200 nM.).
The figure for `CN(C)c1ccnc(N[C@H]2CC[C@@H](NC(=O)c3cc(F)cc(C(F)(F)F)c3)CC2)n1` [compound 256, N-(cis-4-{[4-(dimethylamino)pyrimidin-2-yl]amino}cyclohexyl)-3-fluoro-5-(trifluoromethyl)benzamide] is 2 (Class 2: The value of percent of control at 10^−7 M was from 40% to 60% or the value of IC′50 was from 50 nM to 200 nM.).
On to `CN(C)c1ccnc(N[C@H]2CC[C@@H](NC(=O)c3cc(F)c(Cl)cc3Cl)CC2)n1` [compound 257], for which the class is on record as 3 (Class 3 The value of percent of control at 10^−7 M was more than 60% or the value of IC50 was more than 200 nM.).
For the compound `CCCCCC(=O)N[C@H]1CC[C@@H](Nc2nccc(N(C)C)n2)CC1` [compound 258], the class is given as 3 (Class 3 The value of percent of control at 10^−7 M was more than 60% or the value of IC50 was more than 200 nM.).
For `CN(C)c1ccnc(N[C@H]2CC[C@@H](NC(=O)c3ccc(I)cc3)CC2)n1` [compound 259], the class was 3 (Class 3 The value of percent of control at 10^−7 M was more than 60% or the value of IC50 was more than 200 nM.).
The value for `CSc1ncccc1C(=O)N[C@H]1CC[C@@H](Nc2nccc(N(C)C)n2)CC1` [compound 260] was 3 (Class 3 The value of percent of control at 10^−7 M was more than 60% or the value of IC50 was more than 200 nM.).
As to `Cc1ccc(C(=O)N[C@H]2CC[C@@H](Nc3nccc(N(C)C)n3)CC2)cc1[N+](=O)[O-]` [compound 261, N-(cis-4-{[4-(dimethylamino)pyrimidin-2-yl]amino}cyclohexyl)-4-methyl-3-nitrobenzamide], the class is 2 (Class 2: The value of percent of control at 10^−7 M was from 40% to 60% or the value of IC′50 was from 50 nM to 200 nM.).

For the origin of these results see patent US20050197350A1, “Novel quinoline, tetrahydroquinazoline, and pyrimidine derivatives and methods of treatment related to the use thereof” (TAISHO PHARMACEUTICAL CO., LTD., priority 2003, published 2005).
